Measured values published in patent publication US20150376216A1, “SUGAR-ANALOG PHOSPHORUS-CONTAINING HETEROCYCLES HAVING AN ANTI-METASTATIC ACTIVITY” (CENTRE NATIONAL DE LA RECHERCHE SCIENTIRIQUE, priority 2013, published 2015).
pIC50: −log10 of the molar value.

Key:
[1] = tested on: SNB75 glioblastoma line; test: MTT antiproliferative test, SNB75; assay type: cell-based; settings: Homo sapiens, SNB-75, read-out: IC50, inhibition of proliferation
Procedure: (§1) Several cancer cell lines were used for the in vivo or in vitro biological tests: • SNB75 is a human glioblastoma line derived from a primary culture, i.e. derived from a primary malignant cancer tumor. It forms part of the panel of 59 cancer lines referenced by the NCI. Its Cosmic reference number published by the Welcome Trust Sanger Institute is 905982. This line was supplied by a person (M.D. Ph.D of the department of “Radiation Oncology”, Stanford University Medical Center). It was cultured in Ham's F-12 and DMEM (1/1) supplemented with 10% fetal bovine serum. The experiments were performed with cells in the exponential growth phase. • Gli4 (or Gli4F11) and Gli7 are cultures of cancer strain cells derived from human glioblastomas (primary cultures). These lines are CD133^+, CD15^+ which are multipotent and tumorigenic in animals. They were established by J. P. Hugnot (INM INSERM U-1051 Eq. 4), and described in Guichet, P. O. et al, Glia 2013, 61(2), 225-239; • C6 is a rat glioblastoma line. It is referenced in the ATCC under the reference CCL-107. • MDAMB-435 is a melanoma line derived from a mammary melanoma. It forms part of the panel of 59 cancer lines referenced by the NCI. It is referenced at the ATCC under the reference HTB-129. It was cultured in Ham's F-12 and DMEM (1/1) supplemented with 10% fetal bovine serum. […]

[2] = tested on: GLi4; test: MTT antiproliferative test, Gli4; assay type: cell-based; settings: Homo sapiens, read-out: IC50, inhibition of proliferation
Procedure: as §1

[3] = tested on: Gli7; test: MTT antiproliferative test, Gli7; assay type: cell-based; settings: Homo sapiens, read-out: IC50, inhibition of proliferation
Procedure: as §1

[4] = tested on: MDAMB-231; test: MTT antiproliferative test, MDAMB-231; assay type: cell-based; settings: Homo sapiens, MDA-MB-231, read-out: IC50, inhibition of proliferation
Procedure: (§2) The lines MDAMB-435 and A431 are seeded at a density of 3000 cells per well in 96-well plates. After 24 hours, compounds 4.2a and 5.6d resuspended in 100% DMSO are added at concentrations of 0-0.001-0.010-0.1-1-10-50 μM for a final constant amount of DMSO of 0.3%. The cultures are maintained for a further 72 hours and an MTT colorimetric test is then performed. 100 μl of a solution of MTT at 5 mg/ml in PBS are added to the culture medium, which is left to incubate for 3 hours. The culture medium is removed and the cells are lyzed by adding 100 μL of a 4 mM HCl solvent, 0.1% Nondet P-40 (NP40) in isopropanol. The yellow tetrazolium MTT salt (3-(4,5-dimethylthiazol-2-yl)-2,5-diphenyl tetrazolium bromide), when it is reduced by the mitochondrial succinate dehydrogenase of active live cells, forms a blue-violet formazan product. The medium then changes from yellow to blue-violet. The intensity of this coloration at 590 nm is proportional to the number of live cells present during the test and gives an indication of the metabolic activity of these cells.
(§3) Table 1 gives the concentration values for 50% inhibition of proliferation (IC50) for compounds 4.2a and 5.6d on lines derived from bowel cancer (CaCo2), skin cancer (A431, MDAMB-435, B16F10), breast cancer (MDAMB-431), […] (HuH7), prostate cancer (DU145) and brain cancer (SNB75, Gli4, Gli7).

[5] = tested on: HuH7; test: MTT antiproliferative test, HuH7; assay type: cell-based; settings: Homo sapiens, Huh-7, read-out: IC50, inhibition of proliferation
Procedure: as §2, §3

[6] = Solubility / formulation behaviour; assay type: physicochemical
Procedure: The following two formulations are particularly suited to compounds 3.48a and 4.2a and allow their in vivo administration, at concentrations of about 20-100 mg/kg, intravenously: […]

[7] = tested on: A431 line; test: MTT antiproliferative test, A431; assay type: cell-based, human; settings: Homo sapiens, A-431; A431; 72 hours, MTT; read-out: IC50, inhibition of proliferation
Procedure: as §2, §3

[8] = tested on: DU145; test: MTT antiproliferative test, DU145; assay type: cell-based; settings: Homo sapiens, DU-145, read-out: IC50, inhibition of proliferation
Procedure: as §2, §3

[9] = tested on: C6 glioblastoma line; test: MTT antiproliferative test, C6; assay type: cell-based; settings: Rattus norvegicus, read-out: IC50, inhibition of proliferation
Procedure: as §1

[10] = tested on: MDAMB-435 melanoma line; test: MTT antiproliferative test, MDAMB-435; assay type: cell-based; settings: Homo sapiens, MDA-MB-435, 72 hours, read-out: IC50, inhibition of proliferation
Procedure: as §2, §3

Compound CC1(C)O[C@H]2[C@@H]([C@H]3COC(C)(C)O3)O[P@](=O)(c3ccccc3)[C@@H](OC(=O)c3ccccc3)[C@H]2O1 [Compound 4.2a, (SPRSRR)-3-benzoate-4-(2,2-dimethyl-[1,3]dioxolan-4-yl)-2,2-dimethyl-2-oxo-2-phenyl-tetrahydro-2λ^5-[1,2]oxaphosphinane] has a pIC50 [1] of 5.02, a pIC50 [2] of 5.17 and a pIC50 [3] of 5.57. For the same compound, the pIC50 [4] was 5.94, the pIC50 [5] was less than 4.00 and the Complexation in cyclodextrins [6] was “non-complexible in cyclodextrins”. The Solubility ([6]; water, water-soluble solvents) was “insoluble in water, in numerous water-soluble solvents”, the pIC50 [7] was 5.36 and the pIC50 [8] was less than 4.00. It also gave a pIC50 [9] of 5.07 and a pIC50 [10] of 6.18.
